According to PMC6851183, “Computational design and characterization of nanobody-derived peptides that stabilize the active conformation of the β2-adrenergic receptor (β2-AR)” (Scientific Reports, 2019):
Ends that are not written are not given here.

Target: T1, β2-AR/RLuc8 with GFP^2/β-arr2 Arg393Glu, Arg395Glu (Homo sapiens, UniProt P07550)
T1 construct: expressed in transfected cells; host or cells: HEK-293
Assay: BRET^2-based β-arrestin 2 recruitment assay
Format: cell-based

T1 sequence (P07550 whole entry, change not shown): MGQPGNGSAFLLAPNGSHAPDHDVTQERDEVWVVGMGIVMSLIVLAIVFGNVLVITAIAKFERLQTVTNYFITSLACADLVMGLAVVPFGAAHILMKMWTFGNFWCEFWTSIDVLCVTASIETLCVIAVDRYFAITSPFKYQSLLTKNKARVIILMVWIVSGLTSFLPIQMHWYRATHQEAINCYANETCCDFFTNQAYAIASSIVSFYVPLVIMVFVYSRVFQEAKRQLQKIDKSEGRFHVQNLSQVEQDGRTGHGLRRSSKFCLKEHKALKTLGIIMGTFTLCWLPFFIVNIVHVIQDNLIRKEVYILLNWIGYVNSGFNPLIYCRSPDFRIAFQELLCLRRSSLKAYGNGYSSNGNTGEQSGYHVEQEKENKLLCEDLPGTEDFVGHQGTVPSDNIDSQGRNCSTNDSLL

With EDTAVYYCNANWDLLSD [P3] the EC50 was about 1 nM and the “reduction in isoproterenol-induced BRET^2 signal” value (homogenized or permeabilized cells, 10 µM isoproterenol, P3 10^−12 to 10^−5 M, dose-dependent, maximum) was “up to 10%”.
